Assay results: patent US20090099346A1 (priority 2003, published 2009)

Legend:
[1] = Thermal stability study under accelerated storage conditions (HPLC assay, doxorubicinone quantity, total impurities); type: physicochemical
Experimental: The type II crystalline epirubicin hydrochloride obtained in Example 1 and type I crystalline epirubicin hydrochloride obtained in reference Example 3 were each kept at a temperature 40° C. for six months, thereby simulating accelerated storage conditions. The thermal stability was investigated and measured by studying the following parameters: (1) assay (HPLC method), (2) doxorubicinone quantity (doxorubicinone, an aglycone of epirubicin, is the major epirubicin degradation product), and (3) total impurities.

[2] = Powder X-ray diffraction of commercial batches after accelerated storage; type: physicochemical; details: 3 commercial batches, 6 months of accelerated storage conditions (40° C.)
Experimental: In this example, powder X-ray diffraction spectra of crystalline epirubicin hydrochloride of type I and type II were obtained. Powder X-ray diffraction spectra were measured using a Rigaku Cu Anode X-ray Diffractometer (MiniFlex). The conditions for analysis of the samples was as follows:
FIGS. 16, 18 and 20 illustrate the X-Ray Diffraction spectra of the mentioned above 3 commercial batches, undergone 6 months of Accelerated storage conditions (40° C.).

COc1cccc2c1C(=O)c1c(O)c3c(c(O)c1C2=O)C[C@@](O)(C(=O)CO)C[C@@H]3OC1CC(N)C(O)C(C)O1.Cl (stereo partly drawn) [epirubicin hydrochloride]
shelf life ([1]; concluded from the 40° C. storage study, compared with type I): longer than the shelf life of type I crystalline epirubicin hydrochloride | thermal stability ([1]; kept at 40° C. for six months, compared with type I crystalline epirubicin hydrochloride): much greater thermal stability than type I crystalline epirubicin hydrochloride | thermal stability by X-Ray Diffraction spectra [2]: thermally stable
